Test results published in ChEMBL document CHEMBL5244238, “Targeting mTOR for fighting diseases: A revisited review of mTOR inhibitors” (Eur J Med Chem, 2020).
Blank lines part the entries; values can stand above or below the compound they belong to.

Tests used:
MCF7 = assay: Antiproliferative activity against human MCF7 cells; format: functional, cell-based
A549 = assay: cells; conditions: Homo sapiens
Description: Antiproliferative activity against human A549 cells

[1] = target: Serine/threonine-protein kinase mTOR (Homo sapiens, UniProt P42345)
Description: Inhibition of mTOR (unknown origin)

MIA PaCa-2 = assay: cells; conditions: Homo sapiens
Description: Antiproliferative activity against human MIA PaCa-2 cells

HeLa = assay: cells; conditions: Homo sapiens
Description: Antiproliferative activity against human HeLa cells

PC-3 = assay: cells; conditions: Homo sapiens
Description: Antiproliferative activity against human PC-3 cells

CAKI-1 = assay: cells; conditions: Homo sapiens
Description: Antiproliferative activity against human CAKI-1 cells

Homo sapiens = species on record: Homo sapiens; assay: Selectivity index, ratio of IC50 for PI3Kalpha (unknown origin) to IC50 for mTOR (unknown origin); format: functional
clinical = conditions: human

SMILES: CCCc1nn(C)c2c(=O)[nH]c(-c3cc(OC)cc(OC)c3)nc12
- IC50 (MIA PaCa-2): 24 µM
- IC50 (HeLa): 19 µM
- IC50 (PC-3): 38 µM
- IC50 (CAKI-1): 17 µM
- IC50 (A549): 14 µM

SMILES: CO[C@H]1C[C@@H]2CC[C@@H](C)[C@@](O)(O2)C(=O)C(=O)N2CCCC[C@H]2C(=O)O[C@H]([C@H](C)C[C@@H]2CC[C@@H](OCCO)[C@H](OC)C2)CC(=O)[C@H](C)/C=C(\C)[C@@H](O)[C@@H](OC)C(=O)[C@H](C)C[C@H](C)/C=C/C=C/C=C/1C [EVEROLIMUS]
- IC50 [1]: 0.005 µM

SMILES: O=C(c1ccc(C(=O)C(F)(F)F)cc1)N1CCOc2ccc(-c3cnc4ccccc4c3)cc2C1
- IC50 [1]: 0.095 µM
- Ratio IC50 (Homo sapiens): 4

SMILES: CO[C@H]1C[C@@H]2CC[C@@H](C)[C@@](O)(O2)C(=O)C(=O)N2CCCC[C@H]2C(=O)O[C@H]([C@H](C)C[C@@H]2CC[C@@H](O)[C@H](OC)C2)CC(=O)[C@H](C)/C=C(\C)[C@@H](O)[C@@H](OC)C(=O)[C@H](C)C[C@H](C)/C=C/C=C/C=C/1C [SIROLIMUS]
- half-life (clinical): 40 h

Second part, the compound after the results:

- IC50 (MCF7): 2 µM
- IC50 (A549): 8 µM
SMILES: CCc1ccc(C(=O)c2cnc3cc4c(cc3c2N2CCC(C(N)=O)CC2)OCCO4)cc1

- IC50 [1]: < 1 µM
SMILES: C[C@H]1COCCN1c1nc(-c2ccc(NC(=O)NCC(F)F)cc2)cc(-c2cc(F)ccc2S(C)(=O)=O)n1

- IC50 [1]: < 1 µM
SMILES: CCOC(=O)N1Cc2nc(-c3ccc(NC(=O)NC4CC4)cc3)nc(N3CCOC[C@@H]3C)c2C1

- IC50 [1]: 0.016 µM
SMILES: COc1ccc(C2Cc3c(C)nc(N)nc3N([C@H]3CC[C@H](OCCO)CC3)C2=O)cn1 (some centres undefined)
